In ChEMBL document CHEMBL4406917, “Approaches for Prevention and Treatment of Neurodegenerative Diseases: ALS and Alzheimer's” (ACS Med Chem Lett, 2019):
≈ marks a conversion by molar mass, not a printed value.

Assays:
[1] = tested on: SH-SY5Y; experiment: (§1) Activation of NF-KappaB (unknown origin) expressed in SH-SY5Y cells co-transfected with pNFkappaB-Luc plasmid measured after 24 hrs by Bright-Glo luciferase assay; assay type: cell-based; conditions: Homo sapiens
[2] = Kinetic solubility of compound at pH 7.4 by shake flask method; assay type: physicochemical; conditions: buffer, read-out: Kinetic_solubility
[3] = as §1; assay type: cell-based; conditions: Homo sapiens
[4] = Drug uptake in plasma of SOD1-G93A mutant-induced ALS C57BL/6 mouse model at 50 mg/kg, ip measured within 30 mins; assay type: ADME, organism-based; conditions: in vivo, 0.5 h
[5] = Drug uptake in brain of SOD1-G93A mutant-induced ALS C57BL/6 mouse model at 50 mg/kg, ip measured within 30 mins; assay type: ADME, organism-based; conditions: in vivo, 0.5 h
[6] = Toxicity in SOD1-G93A mutant-induced ALS C57BL/6 mouse model assessed as effect on animal survival at 50 mg/kg, ip; assay type: organism-based; conditions: in vivo

SMILES | ECmax [1] [µM] | solubility kinetic [2] [µM] | EC50 [3] [µM] | Drug uptake [4] | Drug uptake [5] | Activity [6]
COC(=O)c1ccc(-c2cnc(Nc3c(F)cccc3F)o2)cc1 | 42.6 |  |  |  |  | 
O=C(O)c1cccc(-c2cnc(Nc3ccccc3F)o2)c1 | 23.5 | 56 (≈ 16.7 µg/mL) |  |  |  | 
O=C(/C=C\Nc1ccccc1Br)c1ccc2c(c1)OCO2 | 26 |  | 0.5 | Active | Active | Non-Toxic
Cc1cccnc1Nc1nc(-c2ccccn2)cs1 | 40 |  | 0.21 | Active | Active | Non-Toxic
